Key:
APETALA1 (AP1) = assay: AP1 induction (qRT-PCR, pAP1:AP1-GFP imaging) in GR-fusion transgenic plants after treatment; assay type: in vivo, Arabidopsis thaliana; conditions: 4 hours
Experimental: For mock treatment, 0.01% ethanol (EtOH) with 0.01% Silwet L-77 was used as control. […] For test of AP1 induction in single or double hemizygous transgenic lines (FIG. 4A, C, and figure S9) treatments were performed by spraying 16-day-old plants grown on plates once with 10 μM dexamethasone and/or 10 μM paclobutrazol. Tissues were harvested after 4 hours. […] 16-day-old 35S:AlcR pAlcA:mir156f/- 35S:LFY-GR/- plants were sprayed with 10 μM dexamethasone plus 10 μM paclobutrazol and exposed to ethanol vapor or water control. Tissues were harvested after 4 hours. […]
For qRT-PCR, RNA was isolated form entire plants after the switch to reproduction using TRIzol reagent (Invitrogen) and RNeasy Mini kits (Qiagen) and processed as previously described (45). […] Quantitative real-time PCR was performed using Power SYBR green mastermix (Applied Biosystems). The mean and standard error were determined using three technical replicates from one representative experiments. […]
For imaging of GFP fluorescence, inflorescence apices were dissected to remove older flowers and imaged using a Leica confocal microscope (Leica, LCS SL) equipped with an argon-krypton ion laser with the appropriate filter sets for visualizing GFP. […]

Arabidopsis = assay: Number of rosette leaves (vegetative phase) and of cauline leaves and branches (first inflorescence phase) after hormone or inhibitor treatment; assay type: in vivo, Arabidopsis thaliana
Experimental: Plants were grown at 23° C. in a 16 h light/8 h dark cycle. The following plant lines were previously described: lfy-1 null and lfy-2 hypomorph mutants; lfy-6 null mutants, 35S:LFY-GR; 35S:LFY; gal-3; gai; pRGA:RGA-GFP; pRGA:RGA-HA; gal-3 rgl2-1 rga-2 35S:RGA-GR; pSPL9:rSPL-FLAG; 35S:AlcR pAlcA:mir156f; and 35S:SPL9-GR and pAP1:AP1-GFP. […] Most plants were in the Columbia background except for 35S:LFY-GR, pRGA:RGA-GFP, and lfy-6 mutants, which were in the Landsberg erecta background. To avoid comparisons of plants in different ecotype backgrounds, we performed crosses between homozygous transgenic plants and conducted all subsequent analyses in the F1 population. […] Statistical analyses were performed on plant phenotypes that are normally distributed. The population size was determined by expedience (tissue or plant amount that could reasonably be obtained).
For mock treatment, 0.01% ethanol (EtOH) with 0.01% Silwet L-77 was used as control. […] For paclobutrazol treatment in wild type to examine the number of rosette and cauline leaves formed (figure S8), wild-type plants were first germinated on MS plates. After 4 days plants were transferred either to MS plates containing 1 μM paclobutrazol or to control MS plates and grown for 6 more days. At day 10, the plants were transplanted to soil. […] For test of the number of rosette or cauline leaves produced under conditions of increased DELLA accumulation/activity (FIG. 4E), WT, 35S:LFY/-, pSPL9:rSPL9-FLAG/-, and 35S:LFY/- pSPL9:rSPL9-FLAG/- were first germinated on MS plates, followed by transfer to MS plates containing 1 μM paclobutrazol or to control MS plates from day 4 to day 10 of age. At day 10, the plants were transplanted onto soil.

[1] = wild-type plants, MS plates containing 1 μM paclobutrazol day 4 to day 10, versus control plates

`CC(C)(C)[C@@H](O)[C@@H](Cc1ccc(Cl)cc1)n1cncn1` (racemic) [paclobutrazol] was tested, and the “pAP1:AP1-GFP expression in young flower primordia” value (APETALA1 (AP1); 35S:LFY-GR plants, Dex 10 μM plus PAC 10 μM, confocal imaging) was “increase in AP1-GFP”, the “production of AP1 in young flower primordia” value (APETALA1 (AP1); LFY-GR plants, 10 μM paclobutrazol simultaneously with 10 μM dexamethasone, relative to either alone) was “increased production of AP1” and the “number of cauline leaves formed” value (Arabidopsis; 35S:LFY pSPL9:rSPL9-FLAG plants, 1 μM paclobutrazol day 4 to day 10, mean±SEM, 35S:LFY plants 2.5±0.2) was 0.3±0.1. The “number of branches and cauline leaves (duration of the first inflorescence phase)” value (Arabidopsis; [1]) was “fewer” and the “number of rosette leaves (duration of the vegetative phase)” value (Arabidopsis; [1]) was “more”.
